Series [1] concerns ORYSP (Transplanted Paddy Rice). Kind of series: Effect on weeds in rice by water application (Example 3). It counts as in vivo. The settings on record: mixtures of Table 4. The text has this: Seeds of the various weed species and rice were planted in a sandy-loamy soil in a greenhouse under good growth conditions. Three weeks after sowing the tank mixture containing the formulated test compound was applied to the plants submerged in the paddy water. The plants were visually assessed three weeks after application, and the percentage control of the plants is-shown in Table 4 in comparison with untreated controls.

The test system of the next series is ZEAMA (Maize). Kind of series: Weed control postemergence in maize under field conditions, outdoor pot trial (Example 4). It counts as in vivo. The note with it: Tables 5 and 6. The text has this: Seeds of various crop and weed species were planted in a sandy-loamy soil and placed in a climate chamber in a greenhouse under good growth conditions. Four weeks after sowing, the plants were sprayed with a tank mixture containing the formulated test compound at a spray rate of 300 l/ha of spray solution. The plants were visually assessed fourteen days after application, and the percentage control of the plants is shown in Tables 1 and 2.
Using the method of Example 1 but in an outdoor pot trial in the field there were obtained the following results shown in Tables 5, 6 and 7. […]

Structures are written as SMILES.

As to `CCS(=O)(=O)c1ccc(C(=O)C2C(=O)CCCC2=O)c(Cl)c1C1=NOC(CC#N)C1` (centres unmarked) [B2, 2-[2-chloro-3-(5-cyanomethylisoxazolin-3-yl)-4-ethylsulfonylbenzoyl]cyclohexane-1,3-dione], the rice damage result in series [1] was “No rice damage was observed”. For the same molecule, in the series with ZEAMA (Maize), the maize damage result is listed as “No maize damage was observed”.

The values above are taken from patent US20030104946A1, “Herbicidal mixture comprising a benzoyl derivative, a fertilizer containing nitrogen and an adjuvant” (priority 2001, published 2003).
